Data set [1] in a line: in vivo. The note with it: mouse, in vivo, ip. As to the method:
(§1) The acute toxicity was evaluated by intraperitoneal administration to mice. The products were suspended in a dilute pseudo-solution of carboxymethyl-cellulose.
(§2) The mortality was checked over the course of the 7 days which followed the treatment.

The subject of data set [2] is guinea pig ileum. In words: spasmolytic activity, atropine type (contracting agent acetylcholine chloride), technique of MAGNUS. The note with it: Cavia porcellus, read-out: Spasmolytic activity, atropine type, ED 50 (X).
From the text: (2) The contracting agent used was acetylcholine chloride and the reference antagonistic agent was atropine sulphate (R).
Again, the activity of the compounds tested (X) was compared with that of the reference agent chosen (R), by calculating the ratio of their ED 50 values.
Data set [3] has as its system rat duodenum. In words: spasmolytic activity, papaverine type (contracting agent barium chloride), technique of MAGNUS. Format: cell-based. The note with it: for IC50: Tyrode solution 38° C, concentration causing 50% inhibition of the contraction, compound tested (X), read-out: Spasmolytic activity, papaverine type, ED 50 (X); for Spasmolytic activity, papaverine type, ratio of ED 50 values, reference (R) to compound (X): relative to papaverine hydrochloride. As to the method: The spasmolytic activity was studied on the rat duodenum (1) or on the guinea pig ileum (2), kept alive in an aerated Tyrode solution heated to 38° C, in accordance with the technique of MAGNUS (Archiv. Ges. Physiol., 1905, 180, 1-71).
(1) The contracting agent used was barium chloride and the reference antagonistic agent was papaverine hydrochloride (R).

The subject of data set [4] is mice. In words: in vivo. The note with it: mice, intraperitoneal, mortality over 7 days. As to the method:
as §1, §2

Where a name gives a salt, the structure may show the parent alone.

These results are taken from patent US4005095A, “Substituted thienyl-acetic acid esters” (Innothera, priority 1974, dated 1977).

Consider `CCN(CC)CCCOC(=O)C(c1ccc(C)s1)C1CCCCC1` (stereo not shown) [Example 20, 3-Diethylaminopropyl (5-methyl-thienyl-2)-cyclohexyl-acetate (hydrochloride)], for which, in data set [1], the LD50 (usually the dose at which mortality reaches 50%) at 168 h is 80 mg/kg. For the same compound, the IC50 came to 0.009 µg/mL in data set [2] and 1.1 µg/mL in data set [3]. Besides, the “Spasmolytic activity, papaverine type, ratio of ED 50 values, reference (R) to compound (X)” value in data set [3] was 5.45.
On the same counts, the results for `Cc1ccc(C(C(=O)OCCCN2CCCC2)c2ccccc2)s1` (stereo not shown) [Example 21, 3-Pyrrolidino-propyl (5-methyl-thienyl-2)-phenyl-acetate (oxalate)] are 100 mg/kg, 0.1 µg/mL, 2.55 µg/mL and 2.16.
`CCN(CC)CCCOC(=O)C(c1ccsc1C)C1CCCCC1` (stereo not shown) [Example 22, 3-Diethylaminopropyl (2-methyl-thienyl-3)-cyclohexyl-acetate hydrochloride]: in data set [1], the median lethal dose (LD50) at 168 h is 80 mg/kg. Besides, the values for the IC50 in data set [2] and in data set [3] were 0.0115 µg/mL and 0.38 µg/mL, respectively. Besides, the “Spasmolytic activity, papaverine type, ratio of ED 50 values, reference (R) to compound (X)” value in data set [3] came out at 19.75.
The compound `O=C(OCCN1CCCCC1)C(=C1CCCCC1)c1ccsc1` [Example 23, 2-Piperidino-ethyl cyclohexylidene-(thienyl-3)-acetate (hydrochloride)] yielded an LD50 at 168 h in data set [1] of 80 mg/kg. The IC50 was 0.39 µg/mL in data set [2] and 2.4 µg/mL in data set [3]. Moreover, the “Spasmolytic activity, papaverine type, ratio of ED 50 values, reference (R) to compound (X)” value in data set [3] was 1.46.
Compound `O=C(OCCCN1CCCCC1)C(=C1CCCCC1)c1ccsc1` [Example 24, 3-Piperidino-propyl cyclohexylidene-(thienyl-3)-acetate hydrochloride] returned an LD50 at 168 h in data set [1] of 150 mg/kg. The IC50 in data set [2] and in data set [3] was 0.8 µg/mL in each case. Moreover, the “Spasmolytic activity, papaverine type, ratio of ED 50 values, reference (R) to compound (X)” value in data set [3] was found to be 1.56.
With `CC(C[N+]1(C)CCCC1)OC(=O)C(=C1CCCCC1)c1ccsc1.[I-]` (stereo not shown) [Example 25, 2-Pyrrolidino-isopropyl cyclohexylidene-(thienyl-3)-acetate (mono-iodomethylate)], in data set [4], the “Acute toxicity in mice, intraperitoneal administration, LD 50” value came out at 80 mg/kg. The “Spasmolytic activity, papaverine type, ratio of ED 50 values, reference (R) to compound (X)” value in data set [3] was 1.
